Measurements reported in patent publication US20020026053A1, “Novel 3-(substituted) -2- indolinones compounds and use thereof as inhibitors of protein kinase activity” (priority 1997, published 2002).

target: T1, EGFR (Homo sapiens, UniProt P00533); experiment: Biochemical EGFR Assay; design: concentration or dose not given beside the values; conditions: protocol P.167
T1 construct: endogenous in cells; host or cells: A431 cells (lysate, captured with SUMO1 anti-EGFR antibody)
Procedure, shortened: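 EGFR from A431 lysate was captured on anti-EGFR-coated wells and preincubated 30 min with compound (diluted 1:10 in TBS) at room temperature. After ATP/MnCl2 phosphorylation for 5 min, the reaction was stopped with EDTA. Phosphotyrosine was detected by ELISA (anti-phosphotyrosine, peroxidase conjugate, ABTS) at 410 nm.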

T1 sequence (P00533 25-1210): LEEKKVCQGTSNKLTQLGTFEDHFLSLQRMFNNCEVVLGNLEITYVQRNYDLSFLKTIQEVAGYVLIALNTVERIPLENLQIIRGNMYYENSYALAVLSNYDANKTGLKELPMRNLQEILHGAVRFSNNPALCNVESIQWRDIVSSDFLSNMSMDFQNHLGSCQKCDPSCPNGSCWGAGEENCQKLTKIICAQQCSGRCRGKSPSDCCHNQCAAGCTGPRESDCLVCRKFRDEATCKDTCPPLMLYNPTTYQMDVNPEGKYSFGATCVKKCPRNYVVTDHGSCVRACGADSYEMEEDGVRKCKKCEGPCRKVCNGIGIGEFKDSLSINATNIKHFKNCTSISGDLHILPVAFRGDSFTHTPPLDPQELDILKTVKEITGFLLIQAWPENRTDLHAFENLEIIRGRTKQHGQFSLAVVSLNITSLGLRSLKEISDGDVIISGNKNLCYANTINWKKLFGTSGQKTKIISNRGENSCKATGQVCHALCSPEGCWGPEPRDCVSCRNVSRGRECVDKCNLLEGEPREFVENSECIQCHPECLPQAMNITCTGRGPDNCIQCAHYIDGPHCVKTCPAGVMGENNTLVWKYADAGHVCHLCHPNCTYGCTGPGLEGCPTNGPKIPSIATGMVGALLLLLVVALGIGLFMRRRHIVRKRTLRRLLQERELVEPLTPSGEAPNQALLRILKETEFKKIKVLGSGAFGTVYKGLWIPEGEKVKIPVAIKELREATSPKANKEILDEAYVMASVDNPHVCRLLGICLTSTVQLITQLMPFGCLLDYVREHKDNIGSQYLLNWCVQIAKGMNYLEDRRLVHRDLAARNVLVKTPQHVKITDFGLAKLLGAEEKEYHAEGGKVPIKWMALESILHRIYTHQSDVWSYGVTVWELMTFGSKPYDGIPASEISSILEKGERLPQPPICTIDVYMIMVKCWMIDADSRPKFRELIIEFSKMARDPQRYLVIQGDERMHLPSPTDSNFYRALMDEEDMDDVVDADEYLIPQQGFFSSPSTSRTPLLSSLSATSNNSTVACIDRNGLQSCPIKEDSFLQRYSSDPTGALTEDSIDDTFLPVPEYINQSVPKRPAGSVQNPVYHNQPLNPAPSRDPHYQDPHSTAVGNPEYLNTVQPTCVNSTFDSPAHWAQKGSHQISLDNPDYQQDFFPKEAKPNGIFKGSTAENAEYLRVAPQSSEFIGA

SMILES	Biochem EGFR % Inhibition (P.167) [%]
Cc1ccc(Oc2cccc(C=C3C(=O)Nc4c(Br)cc(Br)cc43)c2)cc1 [10738/A02]	16.7
O=C1Nc2c(Br)cc(Br)cc2C1=Cc1cccc(Oc2ccc(Cl)c(Cl)c2)c1 [10738/A03]	40.5
COc1ccc(C=C2C(=O)Nc3c(Br)cc(Br)cc32)cc1O [10738/A04]	−17.5
O=C1Nc2c(Br)cc(Br)cc2C1=Cc1cc(O)ccc1[N+](=O)[O-] [10738/A05]	33.6
O=C1Nc2c(Br)cc(Br)cc2C1=Cc1cccc(O)c1O [10738/A06]	54.9
O=C1Nc2c(Br)cc(Br)cc2C1=Cc1cc(O)cc(O)c1 [10738/A07]	4.3
O=C1Nc2c(Br)cc(Br)cc2C1=Cc1ccc(Cl)c(Cl)c1 [10738/A08]	6.0
COc1ccccc1C=C1C(=O)Nc2c(Br)cc(Br)cc21 [10738/A09]	17.0
CC(C)c1ccc(C=C2C(=O)Nc3c(Br)cc(Br)cc32)cc1 [10738/A10]	−0.9
CCCOc1ccc(C=C2C(=O)Nc3c(Br)cc(Br)cc32)cc1 [10738/A11]	4.5
Cc1ccc(Oc2cccc(C=C3C(=O)Nc4ccc(I)cc43)c2)cc1 [10738/B02]	−24.4
O=C1Nc2ccc(I)cc2C1=Cc1cccc(Oc2ccc(Cl)c(Cl)c2)c1 [10738/B03]	19.2
COc1ccc(C=C2C(=O)Nc3ccc(I)cc32)cc1O [10738/B04]	51.2
O=C1Nc2ccc(I)cc2C1=Cc1cc(O)ccc1[N+](=O)[O-] [10738/B05]	57.6
O=C1Nc2ccc(I)cc2C1=Cc1cccc(O)c1O [10738/B06]	22.9
O=C1Nc2ccc(I)cc2C1=Cc1cc(O)cc(O)c1 [10738/B07]	28.7
O=C1Nc2ccc(I)cc2C1=Cc1ccc(Cl)c(Cl)c1 [10738/B08]	33.9
COc1ccccc1C=C1C(=O)Nc2ccc(I)cc21 [10738/B09]	20.9
CC(C)c1ccc(C=C2C(=O)Nc3ccc(I)cc32)cc1 [10738/B10]	37.3
CCCOc1ccc(C=C2C(=O)Nc3ccc(I)cc32)cc1 [10738/B11]	18.0
Cc1ccc(Oc2cccc(C=C3C(=O)Nc4ccc(Br)c(C)c43)c2)cc1 [10738/C02]	−30.5
Cc1c(Br)ccc2c1C(=Cc1cccc(Oc3ccc(Cl)c(Cl)c3)c1)C(=O)N2 [10738/C03]	8.2
COc1ccc(C=C2C(=O)Nc3ccc(Br)c(C)c32)cc1O [10738/C04]	43.7
Cc1c(Br)ccc2c1C(=Cc1cc(O)ccc1[N+](=O)[O-])C(=O)N2 [10738/C05]	18.4
Cc1c(Br)ccc2c1C(=Cc1cccc(O)c1O)C(=O)N2 [10738/C06]	28.7

SMILES	Biochem EGFR % Inhibition (P.167) [%]
Cc1c(Br)ccc2c1C(=Cc1cc(O)cc(O)c1)C(=O)N2 [10738/C07]	−19.0
Cc1c(Br)ccc2c1C(=Cc1ccc(Cl)c(Cl)c1)C(=O)N2 [10738/C08]	−11.9
COc1ccccc1C=C1C(=O)Nc2ccc(Br)c(C)c21 [10738/C09]	31.9
Cc1c(Br)ccc2c1C(=Cc1ccc(C(C)C)cc1)C(=O)N2 [10738/C10]	5.2
CCCOc1ccc(C=C2C(=O)Nc3ccc(Br)c(C)c32)cc1 [10738/C11]	−1.1
CNS(=O)(=O)c1ccc2c(c1)C(=Cc1cccc(Oc3ccc(C)cc3)c1)C(=O)N2 [10738/D02]	21.4
CNS(=O)(=O)c1ccc2c(c1)C(=Cc1cccc(Oc3ccc(Cl)c(Cl)c3)c1)C(=O)N2 [10738/D03]	47.6
CNS(=O)(=O)c1ccc2c(c1)C(=Cc1ccc(OC)c(O)c1)C(=O)N2 [10738/D04]	7.4
CNS(=O)(=O)c1ccc2c(c1)C(=Cc1cc(O)ccc1[N+](=O)[O-])C(=O)N2 [10738/D05]	4.3
CNS(=O)(=O)c1ccc2c(c1)C(=Cc1cccc(O)c1O)C(=O)N2 [10738/D06]	32.4
CNS(=O)(=O)c1ccc2c(c1)C(=Cc1cc(O)cc(O)c1)C(=O)N2 [10738/D07]	−8.7
CNS(=O)(=O)c1ccc2c(c1)C(=Cc1ccc(Cl)c(Cl)c1)C(=O)N2 [10738/D08]	0.6
CNS(=O)(=O)c1ccc2c(c1)C(=Cc1ccccc1OC)C(=O)N2 [10738/D09]	12.1
CNS(=O)(=O)c1ccc2c(c1)C(=Cc1ccc(C(C)C)cc1)C(=O)N2 [10738/D10]	−12.4
CCCOc1ccc(C=C2C(=O)Nc3ccc(S(=O)(=O)NC)cc32)cc1 [10738/D11]	−13.1
Cc1ccc(Oc2cccc(C=C3C(=O)Nc4ccc(S(=O)(=O)Nc5ccc(C(F)(F)F)cc5)cc43)c2)cc1 [10738/E02]	56.1
O=C1Nc2ccc(S(=O)(=O)Nc3ccc(C(F)(F)F)cc3)cc2C1=Cc1cccc(Oc2ccc(Cl)c(Cl)c2)c1 [10738/E03]	82.6
COc1ccc(C=C2C(=O)Nc3ccc(S(=O)(=O)Nc4ccc(C(F)(F)F)cc4)cc32)cc1O [10738/E04]	13.1
O=C1Nc2ccc(S(=O)(=O)Nc3ccc(C(F)(F)F)cc3)cc2C1=Cc1cc(O)ccc1[N+](=O)[O-] [10738/E05]	52.0
O=C1Nc2ccc(S(=O)(=O)Nc3ccc(C(F)(F)F)cc3)cc2C1=Cc1cccc(O)c1O [10738/E06]	15.8
O=C1Nc2ccc(S(=O)(=O)Nc3ccc(C(F)(F)F)cc3)cc2C1=Cc1cc(O)cc(O)c1 [10738/E07]	57.1
O=C1Nc2ccc(S(=O)(=O)Nc3ccc(C(F)(F)F)cc3)cc2C1=Cc1ccc(Cl)c(Cl)c1 [10738/E08]	43.2
COc1ccccc1C=C1C(=O)Nc2ccc(S(=O)(=O)Nc3ccc(C(F)(F)F)cc3)cc21 [10738/E09]	35.3
CC(C)c1ccc(C=C2C(=O)Nc3ccc(S(=O)(=O)Nc4ccc(C(F)(F)F)cc4)cc32)cc1 [10738/E10]	34.1
CCCOc1ccc(C=C2C(=O)Nc3ccc(S(=O)(=O)Nc4ccc(C(F)(F)F)cc4)cc32)cc1 [10738/E11]	15.8

SMILES	Biochem EGFR % Inhibition (P.167) [%]
Cc1ccc(Oc2cccc(C=C3C(=O)Nc4ccc(S(=O)(=O)N5CCOCC5)cc43)c2)cc1 [10738/F02]	13.1
O=C1Nc2ccc(S(=O)(=O)N3CCOCC3)cc2C1=Cc1cccc(Oc2ccc(Cl)c(Cl)c2)c1 [10738/F03]	45.6
COc1ccc(C=C2C(=O)Nc3ccc(S(=O)(=O)N4CCOCC4)cc32)cc1O [10738/F04]	−6.5
O=C1Nc2ccc(S(=O)(=O)N3CCOCC3)cc2C1=Cc1cc(O)ccc1[N+](=O)[O-] [10738/F05]	51.5
O=C1Nc2ccc(S(=O)(=O)N3CCOCC3)cc2C1=Cc1cccc(O)c1O [10738/F06]	−19.5
O=C1Nc2ccc(S(=O)(=O)N3CCOCC3)cc2C1=Cc1cc(O)cc(O)c1 [10738/F07]	9.1
O=C1Nc2ccc(S(=O)(=O)N3CCOCC3)cc2C1=Cc1ccc(Cl)c(Cl)c1 [10738/F08]	15.5
COc1ccccc1C=C1C(=O)Nc2ccc(S(=O)(=O)N3CCOCC3)cc21 [10738/F09]	0.1
CC(C)c1ccc(C=C2C(=O)Nc3ccc(S(=O)(=O)N4CCOCC4)cc32)cc1 [10738/F10]	−4.8
CCCOc1ccc(C=C2C(=O)Nc3ccc(S(=O)(=O)N4CCOCC4)cc32)cc1 [10738/F11]	−14.8
Cc1ccc(Oc2cccc(C=C3C(=O)Nc4ccc(CCCl)cc43)c2)cc1 [10738/G02]	19.9
O=C1Nc2ccc(CCCl)cc2C1=Cc1cccc(Oc2ccc(Cl)c(Cl)c2)c1 [10738/G03]	31.9
COc1ccc(C=C2C(=O)Nc3ccc(CCCl)cc32)cc1O [10738/G04]	12.1
O=C1Nc2ccc(CCCl)cc2C1=Cc1cc(O)ccc1[N+](=O)[O-] [10738/G05]	27.3
O=C1Nc2ccc(CCCl)cc2C1=Cc1cccc(O)c1O [10738/G06]	−8.2
O=C1Nc2ccc(CCCl)cc2C1=Cc1cc(O)cc(O)c1 [10738/G07]	−1.9
O=C1Nc2ccc(CCCl)cc2C1=Cc1ccc(Cl)c(Cl)c1 [10738/G08]	23.6
COc1ccccc1C=C1C(=O)Nc2ccc(CCCl)cc21 [10738/G09]	16.7
CC(C)c1ccc(C=C2C(=O)Nc3ccc(CCCl)cc32)cc1 [10738/G10]	26.5
CCCOc1ccc(C=C2C(=O)Nc3ccc(CCCl)cc32)cc1 [10738/G11]	19.4
Cc1ccc(Oc2cccc(C=C3C(=O)Nc4c(Br)cc(Br)c(C)c43)c2)cc1 [10738/H02]	−52.0
Cc1c(Br)cc(Br)c2c1C(=Cc1cccc(Oc3ccc(Cl)c(Cl)c3)c1)C(=O)N2 [10738/H03]	16.7
COc1ccc(C=C2C(=O)Nc3c(Br)cc(Br)c(C)c32)cc1O [10738/H04]	−7.0
Cc1c(Br)cc(Br)c2c1C(=Cc1cc(O)ccc1[N+](=O)[O-])C(=O)N2 [10738/H05]	5.5
Cc1c(Br)cc(Br)c2c1C(=Cc1cccc(O)c1O)C(=O)N2 [10738/H06]	−53.8
